The text below walks through data of patent US11926614B2, “1,2,4-triazole derivatives as tankyrase inhibitors” (priority 2018, dated 2024).

Molecules are shown by their SMILES. “And” between values parts separate entries of the source, which are not always exact repeats. Identical values can stand only once. Like-named read-outs stand apart in the source and are kept apart here.

One assay addresses TNKS2 (Homo sapiens (Human), UniProt Q9H2K2). In words: Biochemical IC50 TNKS2. The text has this:
(§1) XLfit (idbs) was used to determine the IC50-values in inhibition experiments. The following formula was chosen to fit the data points (Langmuir Binding Isotherm): fit=((A+(B*x))+4(C−B)*(1−exp((−1*D)*x)))/D)), res=(y−fit)

Another assay deals with HEK293. In words: Cellular IC50 HEK293. The format is cell-based.
Source text: as §1

The mark [1] stands for this setting: Homo sapiens, HEK293, HEK293; read-out: Cellular IC50 HEK293.
The mark [2] stands for this setting: read-out: Biochemical IC50 TNKS2.
[3] abbreviates: Homo sapiens, HEK293, read-out: Cellular IC50 HEK293.
The mark [4] stands for this setting: Homo sapiens, HEK293; read-out: Cellular IC50 HEK293.

TNKS2, sequence (Q9H2K2 whole entry): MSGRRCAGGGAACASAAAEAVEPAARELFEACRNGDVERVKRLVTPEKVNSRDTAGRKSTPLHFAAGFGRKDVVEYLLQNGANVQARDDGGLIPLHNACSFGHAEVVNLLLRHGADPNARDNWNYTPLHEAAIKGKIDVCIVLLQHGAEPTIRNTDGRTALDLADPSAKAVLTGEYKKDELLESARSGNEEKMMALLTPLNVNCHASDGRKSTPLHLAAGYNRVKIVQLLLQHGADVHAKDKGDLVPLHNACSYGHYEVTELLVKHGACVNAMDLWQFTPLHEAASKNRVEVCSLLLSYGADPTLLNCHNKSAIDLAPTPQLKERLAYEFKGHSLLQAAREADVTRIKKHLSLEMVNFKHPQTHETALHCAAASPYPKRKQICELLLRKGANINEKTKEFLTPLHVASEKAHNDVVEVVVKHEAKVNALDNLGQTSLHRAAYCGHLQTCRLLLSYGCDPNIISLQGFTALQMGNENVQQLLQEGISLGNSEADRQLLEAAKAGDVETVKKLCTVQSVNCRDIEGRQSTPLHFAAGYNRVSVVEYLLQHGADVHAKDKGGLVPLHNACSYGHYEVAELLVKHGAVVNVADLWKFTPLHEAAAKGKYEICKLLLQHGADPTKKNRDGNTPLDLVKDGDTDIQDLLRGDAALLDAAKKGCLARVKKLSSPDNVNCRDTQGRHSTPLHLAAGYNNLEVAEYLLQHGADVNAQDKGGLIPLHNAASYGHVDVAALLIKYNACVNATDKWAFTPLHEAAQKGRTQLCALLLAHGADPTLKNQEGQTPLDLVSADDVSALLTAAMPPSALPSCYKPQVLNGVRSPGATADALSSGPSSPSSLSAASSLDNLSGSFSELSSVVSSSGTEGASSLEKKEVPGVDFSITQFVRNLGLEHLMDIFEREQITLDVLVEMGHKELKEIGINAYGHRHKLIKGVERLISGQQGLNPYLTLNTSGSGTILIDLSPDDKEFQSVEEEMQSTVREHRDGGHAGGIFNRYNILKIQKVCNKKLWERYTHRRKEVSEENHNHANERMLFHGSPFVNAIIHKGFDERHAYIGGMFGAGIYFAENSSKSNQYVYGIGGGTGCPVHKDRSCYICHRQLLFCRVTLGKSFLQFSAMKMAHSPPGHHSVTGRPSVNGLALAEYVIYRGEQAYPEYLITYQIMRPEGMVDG

What is called IC50 is the concentration needed to halve the response being measured. Consider `[2H]C([2H])([2H])C([2H])([2H])Oc1ccc(-c2nnc([C@H]3C[C@H](NC(=O)c4cccc5cc(F)cnc45)C3)n2-c2ccccc2F)nc1` [Example 141, N-((1S,3r)-3-(5-(5-(ethoxy-d5)pyridin-2-yl)-4-(2-fluorophenyl)-4H-1,2,4-triazol-3-yl)cyclobutyl)-3-fluoroquinoline-8-carboxamide], for which the IC50 stood at 2.9 nM against TNKS2 and 1.1 nM in the assay on HEK293 (setting [1]).

In the case of `O=C(NC12CC(c3nnc(-c4ccncn4)n3-c3ccccc3Cl)(C1)C2)c1ccnc2cccnc12` [Example 21, N-(3-(4-(2-chlorophenyl)-5-(pyrimidin-4-yl)-4H-1,2,4-triazol-3-yl)bicyclo[1.1.1]pentan-1-yl)-1,5-naphthyridine-4-carboxamide], the IC50 on TNKS2 (setting [2]) is 1.8 nM; with HEK293 (setting [1]), 0.5 nM.

In the case of `CCOc1ccc(-c2nnc([C@H]3C[C@H](NC(=O)c4ncccc4C)C3)n2-c2ccccc2F)nc1` [Example 102, N-((1S,3r)-3-(5-(5-ethoxypyridin-2-yl)-4-(2-fluorophenyl)-4H-1,2,4-triazol-3-yl)cyclobutyl)-3-methylpicolinamide], the half-inhibitory concentration (IC50) was 190 nM at TNKS2 (setting [2]) and 919 nM with HEK293 (setting [1]).

With `CC(C)Oc1ccc(-c2nnc([C@H]3C[C@H](NC(=O)c4ccccn4)C3)n2-c2ccccc2F)nc1` [Example 111, N-((1S,3r)-3-(4-(2-fluorophenyl)-5-(5-isopropoxypyridin-2-yl)-4H-1,2,4-triazol-3-yl)cyclobutyl)picolinamide], the half-maximal inhibitory concentration (IC50) is 12 nM on TNKS2 (setting [2]) and 110 nM with HEK293 (setting [3]).

In the case of `O=C(N[C@H]1C[C@H](c2nnc(-c3nccs3)n2-c2ccncc2)C1)c1cccc2cccnc12` [Example 146, N-((1r,3r)-3-(4-(pyridin-4-yl)-5-(thiazol-2-yl)-4H-1,2,4-triazol-3-yl)cyclobutyl)quinoline-8-carboxamide], the figures for the IC50 at TNKS2 (setting [2]) and in the assay on HEK293 (setting [1]) were 16 nM and 80 nM, respectively.

`O=C(N[C@H]1C[C@H](c2nnc(-c3ccccc3)n2-c2ccccc2F)C1)c1ccnc2cc(F)cnc12` [Example 177, 7-fluoro-N-((1S,3r)-3-(4-(2-fluorophenyl)-5-phenyl-4H-1,2,4-triazol-3-yl)cyclobutyl)-1,5-naphthyridine-4-carboxamide]: the IC50 on TNKS2 (setting [2]) was 3.8 nM; in the assay on HEK293 (setting [1]), 25 nM.

For `CCOc1ccc(-c2nnc([C@H]3C[C@H](NC(=O)c4ccnc5cccnc45)C3)n2-c2ccccc2)nc1` [Example 69, N-((1r,3r)-3-(5-(5-ethoxypyridin-2-yl)-4-phenyl-4H-1,2,4-triazol-3-yl)cyclobutyl)-1,5-naphthyridine-4-carboxamide], the IC50 on TNKS2 (setting [2]) came to 2 nM; with HEK293 (setting [1]) it was 0.712 nM.

For `CCOc1ccc(-c2nnc([C@H]3C[C@H](NC(=O)c4cccc5c4OCCO5)C3)n2-c2ccccc2F)nc1` [Example 116, N-((1S,3r)-3-(5-(5-ethoxypyridin-2-yl)-4-(2-fluorophenyl)-4H-1,2,4-triazol-3-yl)cyclobutyl)-2,3-dihydrobenzo[b][1,4]dioxine-5-carboxamide], the IC50 at TNKS2 (setting [2]) was found to be 4.5 nM; in the assay with HEK293 (setting [1]) it was 47 nM.

As to `O=C(N[C@H]1C[C@H](c2nnc(-c3ccccc3)n2-c2ccccc2F)C1)c1ccnc2cccnc12` [Example 176, N-((1S,3r)-3-(4-(2-fluorophenyl)-5-phenyl-4H-1,2,4-triazol-3-yl)cyclobutyl)-1,5-naphthyridine-4-carboxamide], the figures for the IC50 on TNKS2 (setting [2]) and with HEK293 (setting [1]) were 3.6 nM and 28 nM, respectively.

As for `CCOc1ccc(-c2nnc([C@H]3C[C@H](NC(=O)c4cc5cccnc5[nH]4)C3)n2-c2ccccc2F)nc1` [Example 152, N-((1S,3r)-3-(5-(5-ethoxypyridin-2-yl)-4-(2-fluorophenyl)-4H-1,2,4-triazol-3-yl)cyclobutyl)-1H-pyrrolo[2,3-b]pyridine-2-carboxamide], the IC50 at TNKS2 (setting [2]) was determined as 19 nM; in the assay with HEK293 (setting [1]) it was 144 nM.

Regarding `O=C(N[C@H]1C[C@H](c2nnc(-c3nccs3)n2-c2ccccc2)C1)c1ccc(F)cc1` [Example 35, 4-fluoro-N-((1r,3r)-3-(4-phenyl-5-(thiazol-2-yl)-4H-1,2,4-triazol-3-yl)cyclobutyl)benzamide], the figures for the IC50 at TNKS2 (setting [2]) and in the assay on HEK293 (setting [1]) were 120 nM and 580 nM, respectively.

As to `O=C(N[C@H]1C[C@H](c2nnc(-c3nccs3)n2-c2ccccn2)C1)c1cccc2cccnc12` [Example 38, N-((1r,3r)-3-(4-(pyridin-2-yl)-5-(thiazol-2-yl)-4H-1,2,4-triazol-3-yl)cyclobutyl)quinoline-8-carboxamide], the IC50 turned out to be 45 nM at TNKS2 (setting [2]) and 46 nM in the assay on HEK293 (setting [1]).

For the compound `O=C(N[C@H]1C[C@H](c2nnc(-c3ccncn3)n2-c2ccccc2Cl)C1)c1ncccc1F` [Example 18, N-((1S,3r)-3-(4-(2-chlorophenyl)-5-(pyrimidin-4-yl)-4H-1,2,4-triazol-3-yl)cyclobutyl)-3-fluoropicolinamide], the IC50 stood at 37 nM on TNKS2 (setting [2]) and 57 nM in the assay on HEK293 (setting [1]).

With `O=C(N[C@H]1C[C@H](c2nnc(-c3ccccn3)n2-c2ccccc2F)C1)c1ccnc2cc(F)cnc12` [Example 191, 7-fluoro-N-((1S,3r)-3-(4-(2-fluorophenyl)-5-(pyridin-2-yl)-4H-1,2,4-triazol-3-yl)cyclobutyl)-1,5-naphthyridine-4-carboxamide], the figures for the IC50 on TNKS2 (setting [2]) and in the assay on HEK293 (setting [4]) were 1.8 nM and 3.4 nM, respectively.

For the compound `CS(=O)(=O)c1ccc(-c2nnc([C@H]3C[C@H](NC(=O)c4ccnc5cc(F)cnc45)C3)n2-c2ccccc2F)nc1` [Example 50, 7-fluoro-N-((1S,3r)-3-(4-(2-fluorophenyl)-5-(5-(methylsulfonyl)pyridin-2-yl)-4H-1,2,4-triazol-3-yl)cyclobutyl)-1,5-naphthyridine-4-carboxamide], the IC50 on TNKS2 (setting [2]) turned out to be 1.6 nM; with HEK293 (setting [1]), 0.23 nM.

Consider `O=C(N[C@H]1C[C@H](c2nnc(-c3ccncn3)n2-c2ccccc2Cl)C1)c1c(F)cccc1F` [Example 16, N-((1S,3r)-3-(4-(2-chlorophenyl)-5-(pyrimidin-4-yl)-4H-1,2,4-triazol-3-yl)cyclobutyl)-2,6-difluorobenzamide], for which, in the assay on HEK293 (setting [1]), the half-inhibitory concentration (IC50) was 7680 nM.

As to `CCOc1ccc(-c2nnc([C@H]3C[C@H](NC(=O)c4ccc5ccccc5n4)C3)n2-c2ccccc2F)nc1` [Example 104, N-((1S,3r)-3-(5-(5-ethoxypyridin-2-yl)-4-(2-fluorophenyl)-4H-1,2,4-triazol-3-yl)cyclobutyl)quinoline-2-carboxamide], the half-inhibitory concentration (IC50) was 6.4 nM on TNKS2 (setting [2]) and 14 nM in the assay with HEK293 (setting [1]).

Regarding `O=C(N[C@H]1C[C@H](c2nnc(-c3nccs3)n2-c2ccc(Cl)s2)C1)c1ccnc2cccnc12` [Example 78, N-((1r,3r)-3-(4-(5-chlorothiophen-2-yl)-5-(thiazol-2-yl)-4H-1,2,4-triazol-3-yl)cyclobutyl)-1,5-naphthridine-4-carboxamide], the IC50 on TNKS2 (setting [2]) worked out at 2 nM; with HEK293 (setting [1]) it was 1.1 nM.

With `[2H]C([2H])([2H])C([2H])([2H])Oc1ccc(-c2nnc([C@H]3C[C@H](NC(=O)c4ccnc5cc(F)cnc45)C3)n2-c2ccccc2F)nc1` [Example 94, N-((1S,3r)-3-(5-(5-(ethoxy-d5)pyridin-2-yl)-4-(2-fluorophenyl)-4H-1,2,4-triazol-3-yl)cyclobutyl)-7-fluoro-1,5-naphthyridine-4-carboxamide], the IC50 against TNKS2 worked out at 2.7 nM; in the assay on HEK293 (setting [4]), 0.45 nM.

Take `O=C(NC12CC(c3nnc(-c4ccncn4)n3-c3ccccc3Cl)(C1)C2)c1ccccc1` [Example 23, N-(3-(4-(2-chlorophenyl)-5-(pyrimidin-4-yl)-4H-1,2,4-triazol-3-yl)bicyclo[1.1.1]pentan-1-yl)benzamide]: the IC50 at TNKS2 (setting [2]) was determined as 3.8 nM; in the assay with HEK293 (setting [1]), 100 nM.

As to `O=C(N[C@H]1C[C@H](c2nnc(-c3ccccc3)n2-c2ccccc2F)C1)c1ccc(F)cn1` [Example 175, 5-fluoro-N-((1S,3r)-3-(4-(2-fluorophenyl)-5-phenyl-4H-1,2,4-triazol-3-yl)cyclobutyl)picolinamide], the IC50 came out at 150 nM at TNKS2 (setting [2]) and 499 nM in the assay on HEK293 (setting [1]).

As for `CCOc1ccc(-c2nnc([C@H]3C[C@H](NC(=O)c4cccc5cccnc45)C3)n2-c2ccccc2)nc1` [Example 71, N-((1r,3r)-3-(5-(5-ethoxypyridin-2-yl)-4-phenyl-4H-1,2,4-triazol-3-yl)cyclobutyl)quinoline-8-carboxamide], the half-inhibitory concentration (IC50) in the assay with HEK293 (setting [1]) is 1.8 nM.

Regarding `CCOc1ccc(-c2nnc([C@H]3C[C@H](NC(=O)c4ccc(F)cc4)C3)n2-c2ccccc2F)nc1` [Example 56, N-((1S,3r)-3-(5-(5-ethoxypyridin-2-yl)-4-(2-fluorophenyl)-4H-1,2,4-triazol-3-yl)cyclobutyl)-4-fluorobenzamide], the IC50 on TNKS2 (setting [2]) was 10 nM and 2 nM.

Turning to `CCOc1ccc(-c2nnc([C@H]3C[C@H](NC(=O)c4ccccn4)C3)n2-c2ccccc2F)nc1` [Example 54, N-((1S,3r)-3-(5-(5-ethoxypyridin-2-yl)-4-(2-fluorophenyl)-4H-1,2,4-triazol-3-yl)cyclobutyl)picolinamide], the IC50 in the assay on HEK293 (setting [4]) came out at 17 nM.

With `[2H]C([2H])([2H])C([2H])([2H])Oc1ccc(-c2nnc([C@H]3C[C@H](NC(=O)c4ccccn4)C3)n2-c2ccccc2F)nc1` [Example 93, N-((1S,3r)-3-(5-(5-(ethoxy-d5)pyridin-2-yl)-4-(2-fluorophenyl)-4H-1,2,4-triazol-3-yl)cyclobutyl)picolinamide], the IC50 with HEK293 (setting [4]) was found to be 9.5 nM.

On to `O=C(N[C@H]1C[C@H](c2nnc(-c3nccs3)n2-c2ccccc2F)C1)c1ccnc2cc(F)cnc12` [Example 29, 7-fluoro-N-((1S,3r)-3-(4-(2-fluorophenyl)-5-(thiazol-2-yl)-4H-1,2,4-triazol-3-yl)cyclobutyl)-1,5-naphthyridine-4-carboxamide], for which the IC50 with HEK293 (setting [1]) came to 1.3 nM.

For `CCOc1ccc(-c2nnc([C@H]3C[C@H](NC(=O)c4cccc5nccnc45)C3)n2-c2ccccc2F)nc1` [Example 154, N-((1S,3r)-3-(5-(5-ethoxypyridin-2-yl)-4-(2-fluorophenyl)-4H-1,2,4-triazol-3-yl)cyclobutyl)quinoxaline-5-carboxamide], in the assay on HEK293 (setting [3]), the half-inhibitory concentration (IC50) is 0.53 nM.
